{"source": "patent US5648366A", "about": "“Substituted pyrrolidin-3-yl-alkyl-piperidines” (Merrell Pharmaceuticals Inc., priority 1995, dated 1997)", "key": {"NK1 receptor [1]": {"target": "T1, NK1 receptor (Cavia porcellus, UniProt P30547)", "T1 sequence (P30547 whole entry)": "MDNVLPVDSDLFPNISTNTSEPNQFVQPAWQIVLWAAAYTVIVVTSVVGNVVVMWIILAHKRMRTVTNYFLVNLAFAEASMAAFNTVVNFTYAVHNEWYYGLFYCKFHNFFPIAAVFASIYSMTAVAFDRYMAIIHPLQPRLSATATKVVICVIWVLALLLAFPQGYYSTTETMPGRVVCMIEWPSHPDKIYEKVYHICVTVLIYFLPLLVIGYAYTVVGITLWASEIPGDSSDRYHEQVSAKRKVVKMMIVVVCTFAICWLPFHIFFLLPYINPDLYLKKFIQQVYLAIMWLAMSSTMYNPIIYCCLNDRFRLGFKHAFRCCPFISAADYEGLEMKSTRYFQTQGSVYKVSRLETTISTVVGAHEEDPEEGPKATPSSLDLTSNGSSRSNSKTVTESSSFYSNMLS", "assay": "Antagonism of iodinated tachykinin (125I-substance P) binding to NK1 receptor in guinea pig lungs", "parameters": "tissue Keystone Biologicals, Cleveland, Ohio; host or cells: guinea pig lung membranes", "details": "guinea pig lungs; mean of several experiments; read-out: NK-1 IC50", "protocol": "ANTAGONISM OF IODINATED TACHYKININ BINDING TO NK1 AND NK2 RECEPTORS BY PUTATIVE ANTAGONISTS\nThe NK1 receptor affinity of proposed tachykinin antagonists was evaluated in guinea pig lungs (Keystone Biologicals, Cleveland, Ohio), affinity for the NK2 receptor evaluated in HSKR-1 cells (which are mouse 3T3 fibroblasts expressing the human jejunal NK2 receptor) and NK-3 receptor affinity was evaluated in freshly collected guinea pig cerebral cortex. Tissues or cells were homogenized with a Polytron in 15 volumes of 50 mM Tris-HCl buffer (pH 7.4, 4° C.) and centrifuged. The pellet was resuspended in Tris-HCl buffer and was centrifuged; the pellet was washed twice by resuspension. The final pellet was resuspended at a concentration of 40 mg/ml for tissues (guinea pig lung and cerebral cortex) and 20 mg/ml for cells in incubation buffer and remained at room temperature for at least 15 min prior to use. Receptor binding was initiated by addition of 250 ul membrane preparation in duplicate to 0.1 nM of the following radioligands: ^125 I-Bolton Hunter Lys-3 labeled substance P; ^125 iodohistidyl-1-neurokinin A; and ^125 I-Bolton Hunter labeled Lys-4 eledoisin in a final volume of 500 ul of buffer containing 50 mM Tris-HCl (pH 7.4 at room temperature), 0.1% bovine serum albumin, 2 mM MnCl2, 40 ug/ml bacitracin, 4 µg/ml leupeptin and chymostatin, 1 μM thiorphan and various doses of the putative tachykinin antagonists. Incubations were performed at room temperature for 90 min (NK1 receptor assays) or 2 hr (NK2 and NK3 receptor assays); binding was terminated by addition of 50 mM Tris-HCl buffer (pH 7.4, 4° C.) and filtration under vacuum through GF/B filters presoaked with 0.1% polyethyleneimine (NK1 receptor assays) or 0.5% bovine serum albumin (NK2 and NK3 receptor assays). Filter bound radioactivity was quantitated in a gamma counter. Nonspecific binding was defined as binding in the presence of 1 μM substance P, neurokinin A, or eledoisin. Specific binding was calculated by subtracting nonspecific binding from total binding. Competition of iodinated SP, NKA, or eledoisin binding by test compounds or standards was expressed as a percentage of this maximum competition. IC50 values (concentration required to inhibit 50% of receptor binding) were generated for each of the test compounds by nonlinear regression using an iterative curve fitting program (GraphPAD Inplot, San Diego, Calif.)."}, "NK1 receptor [2]": {"target": "T1, NK1 receptor", "assay": "Antagonism of SP-induced plasma protein extravasation in guinea pig trachea", "type": "in vivo", "parameters": "SP-induced plasma protein extravasation in guinea pig trachea; from tissue; host or cells: living guinea pig; trachea and primary bronchi", "details": "i.v.; Example 3 versus Example 20A", "protocol": "ANTAGONISM OF SP-INDUCED PLASMA PROTEIN EXTRAVASATION IN GUINEA PIG TRACHEA\nSP-induced protein leakage through postcapillary venules was assessed by measuring Evans Blue dye accumulation in guinea pig trachea. Animals were anesthetized with pentobarbital then injected with Evans Blue dye (20 mg/kg, i.v., prepared in 0.9% NaCl solution). One minute after dye administration, the antagonist was administered (i.v.) followed by SP (0.3 nmole/kg, i.v.) and, after 5 min, excess dye removed from the circulation by transcardiac perfusion with 50 ml 0.9% NaCl solution. The trachea and primary bronchi were removed, blotted dry and weighed. Dye quantitation was performed spectrophotometrically ([…]) after extracting tissues in formamide for 24 hr at 50° C. Values were subtracted from background (dye only, no agonist). ED50 (dose of compound which inhibits SP-induced plasma protein extravasation by 50%) was calculated from linear regression analysis."}, "NK1 and NK2 receptors": {"test_system": "NK1 and NK2 receptors", "assay": "Antagonism of capsaicin aerosol induced respiratory effects in conscious guinea pigs", "type": "in vivo, guinea pig", "details": "for SRE NUMBER (coughs/gasps): 19 min capsaicin exposure; for SRE NUMBER (coughs/gasps) / DYSPNEA ONSET / MAXIMUM PRESSURE INCREASE: mean and SEM; for DYSPNEA INCIDENCE / DYSPNEA ONSET / MAXIMUM PRESSURE INCREASE: capsaicin aerosol 0.001%", "protocol": "(§1) ANTAGONISM OF NKA AND CAPSAICIN INDUCED R[…] IN CONSCIOUS GUINEA PIGS\n(§2) In vivo experiments were performed using male Duncan Hartley guinea pigs (250-350 g). Changes in conscious breathing patterns were monitored in four animals simultaneously using modified whole body plethysmography consisting of four small plexiglass boxes each connected to a reference box via Validyne DP 45-16 differential pressure transducers. The 4 boxes were equipped with an air supply line (also used for aerosol delivery) and an exhaust air line. Supply and exhaust lines were of the same length and narrow bore and arose from a common supply chamber and vented to a common exhaust chamber. This system was used to ensure that fluctuations in supply air and atmospheric pressure would remain in phase and be eliminated from the net signal by the differential pressure transducers. The analog pressure signals were digitalized via a Data Translation DT2821 A to D board. Data were collected at a rate of 100 samples/second/animal. Each cycle of pressure change was analyzed using the following parameters: rising and falling slope determined between minimum and maximum pressures, the ratio of rising over falling slope, and the magnitude of the change between initial trough pressure and peak cycle pressure. Using these values (and observing the animals) the pressure cycles were characterized into normal breaths, forced exhalations (apparent by abdominal heaving), significant respiratory events (SREs; usually coughs, less often sneezes or gasps which were characterized by transient, extremely large pressure increases which were distinguishable from noise) and movement/noise with a PCAT 286 running a System V UNIX operating system. Dyspnea was defined as a significant, sustained increase in plethysmograph pressure which was associated with an observable shift to labored breathing in the animal.\n(§3) During the course of a typical experiment in which airway responsiveness to various bronchoconstricting agents was examined, aerosols were delivered for 19 min (0.33 ml/min) using a DeVilbiss Ultraneb 99 ultrasonic nebulizer and animals monitored during this time. Prior to nebulization, 1 min of resting breathing was collected to establish a baseline pressure. […] The vehicle for nebulization of all bronchoconstrictive agents was phosphate buffered saline (pH 7.4) which elicited no r[…] itself. Putative tachykinin antagonists were administered either (i.v.) 20 min prior to onset of aerosol exposure or orally 1 hour prior to onset (to guinea pigs after an overnight fast).\nCapsaicin aerosol is known to promote release of the tachykinins SP and NKA from sensory nerves in the airways of guinea pigs which may then act upon NK1 and NK2 receptors, respectively to elicit r[…]. The ability of the compounds of Example 3A; and Example 20A to attenuate capsaicin-induced r[…], shown in Table 7a, is inferred from their ability to reduce incidence of dyspnea, prolong the onset of the response and reduce the number of coughs/gasps which occur during aerosol exposure."}, "NK2 receptor": {"test_system": "NK2 receptor", "assay": "Antagonism of NKA aerosol induced respiratory effects in conscious guinea pigs", "type": "in vivo, guinea pig", "details": "20 min prior to NKA aerosol (0.05%); for DYSPNEA ONSET: mean and SEM", "protocol": "as §1, §2, §3\nTable 6 illustrates the effects of the compounds of Example 3; Example 20A; and Example 5A on r[…] induced by NKA aerosol. […] These effects were dose dependent i.e. the higher the dose of compound, the greater attenuation of NKA-mediated effects."}}, "note": "Counter-ions that a name gives are not always drawn.", "data": [{"compound": "COc1ccccc1C(=O)N1CCC(CCN2CCC(C(N)=O)(c3ccccc3)CC2)(c2ccc(Cl)c(Cl)c2)C1", "note": "(stereo not drawn) [Example 13, 1-[2-[3-(3,4-dichloro-phenyl)-1-(2-methoxy-benzoyl)-pyrrolidin-3-yl]-ethyl]-4-phenyl-piperidine-4-carboxylic acid amide]", "values": [{"measurement": "IC50", "setting": "NK1 receptor [1]", "value": 74, "unit": "nM"}]}, {"compound": "NC(=O)C1(c2ccccc2)CCN(CCC2(c3ccc(Cl)c(Cl)c3)CCN(C(=O)c3ccccc3)C2)CC1", "note": "(stereo not drawn) [Example 1, 1-[2-[3-(3,4-dichloro-phenyl)-1-benzoyl-pyrrolidin-3-yl]-ethyl]-4-phenyl-piperidine-4-carboxylic acid amide]", "values": [{"measurement": "IC50", "setting": "NK1 receptor [1]", "value": 270, "unit": "nM"}]}, {"compound": "COc1cc(C(=O)N2CCC(CCN3CCC(C(N)=O)(c4ccccc4)CC3)(c3ccc(Cl)c(Cl)c3)C2)cc(OC)c1OC", "note": "(single isomer, unassigned; (+)) [Example 20A, (+)-1-[2-[3-(3,4-dichloro-phenyl)-1-(3,4,-trimethoxy-benzoyl)-pyrrolidin-3-yl]-ethyl]-4-phenyl-piperidine-4-carboxylic acid amide hydrochloride]", "values": [{"measurement": "relative potency as NK-1 receptor antagonists (in words)", "setting": "NK1 receptor [2]", "value": "equipotent"}, {"measurement": "SRE NUMBER (coughs/gasps)", "setting": "NK1 and NK2 receptors; 1 mg/kg intravenous", "value": "9.9 ± 2.7"}, {"measurement": "DYSPNEA INCIDENCE", "setting": "NK1 and NK2 receptors; 1 mg/kg intravenous", "value": 77.8, "unit": "%"}, {"measurement": "DYSPNEA ONSET", "setting": "NK1 and NK2 receptors; 1 mg/kg intravenous", "value": "331 ± 22", "unit": "s"}, {"measurement": "MAXIMUM PRESSURE INCREASE", "setting": "NK1 and NK2 receptors; 1 mg/kg intravenous", "value": "1.0 ± 0.1", "unit": "mmH2 O"}, {"measurement": "SRE NUMBER (coughs/gasps)", "setting": "NK1 and NK2 receptors; 2.5 mg/kg intravenous", "value": "8.3 ± 1.6"}, {"measurement": "DYSPNEA INCIDENCE", "setting": "NK1 and NK2 receptors; 2.5 mg/kg intravenous", "value": 100, "unit": "%"}, {"measurement": "DYSPNEA ONSET", "setting": "NK1 and NK2 receptors; 2.5 mg/kg intravenous", "value": "426 ± 57", "unit": "s"}, {"measurement": "MAXIMUM PRESSURE INCREASE", "setting": "NK1 and NK2 receptors; 2.5 mg/kg intravenous", "value": "0.6 ± 0.1", "unit": "mmH2 O"}, {"measurement": "SRE NUMBER (coughs/gasps)", "setting": "NK1 and NK2 receptors; 5 mg/kg intravenous", "value": "4.4 ± 1.9"}, {"measurement": "DYSPNEA INCIDENCE", "setting": "NK1 and NK2 receptors; 5 mg/kg intravenous", "value": 44.4, "unit": "%"}, {"measurement": "DYSPNEA ONSET", "setting": "NK1 and NK2 receptors; 5 mg/kg intravenous", "value": "597 ± 186", "unit": "s"}, {"measurement": "MAXIMUM PRESSURE INCREASE", "setting": "NK1 and NK2 receptors; 5 mg/kg intravenous", "value": "0.8 ± 0.06", "unit": "mmH2 O"}, {"measurement": "SRE NUMBER (coughs/gasps)", "setting": "NK1 and NK2 receptors; 10 mg/kg intravenous", "value": "3.3 ± 1.1"}, {"measurement": "DYSPNEA INCIDENCE", "setting": "NK1 and NK2 receptors; 10 mg/kg intravenous", "value": 55.6, "unit": "%"}, {"measurement": "DYSPNEA ONSET", "setting": "NK1 and NK2 receptors; 10 mg/kg intravenous", "value": "592 ± 71", "unit": "s"}, {"measurement": "MAXIMUM PRESSURE INCREASE", "setting": "NK1 and NK2 receptors; 10 mg/kg intravenous", "value": "0.8 ± 0.1", "unit": "mmH2 O"}, {"measurement": "inhibition of endogenous tachykinins released by capsaicin aerosol (in words)", "setting": "NK1 and NK2 receptors; guinea pig, in vivo", "value": "inhibit the endogenous tachykinins released by capsaicin aerosol"}, {"measurement": "DYSPNEA INCIDENCE", "setting": "NK2 receptor; 1 mg/kg", "value": 100, "unit": "%"}, {"measurement": "DYSPNEA ONSET", "setting": "NK2 receptor; 1 mg/kg", "value": "451 ± 30", "unit": "s"}, {"measurement": "DYSPNEA INCIDENCE", "setting": "NK2 receptor; 5 mg/kg", "value": 90, "unit": "%"}, {"measurement": "DYSPNEA ONSET", "setting": "NK2 receptor; 5 mg/kg", "value": "706 ± 82", "unit": "s"}, {"measurement": "DYSPNEA INCIDENCE", "setting": "NK2 receptor; 10 mg/kg", "value": 70, "unit": "%"}, {"measurement": "DYSPNEA ONSET", "setting": "NK2 receptor; 10 mg/kg", "value": "829 ± 105", "unit": "s"}]}, {"compound": "COc1ccccc1CC(=O)N1CCC(CCN2CCC(C(N)=O)(c3ccccc3)CC2)(c2ccc(Cl)c(Cl)c2)C1", "note": "(stereo not drawn) [Example 4, 1-(2-[3-(3,4-dichloro-phenyl)-1-[2-(2-methoxy-phenyl)-acetyl]-pyrrolidin-3-yl]-ethyl)-4-phenyl-piperidine-4-carboxylic acid amide]", "values": [{"measurement": "IC50", "setting": "NK1 receptor [1]", "value": 48, "unit": "nM"}]}]}
